Some results are limits rather than exact numbers.

One assay has as its target T1, ITK (Homo sapiens, UniProt Q08881).
T1 construct: purchased Promega Corporation
T1 sequence (Q08881 1-620): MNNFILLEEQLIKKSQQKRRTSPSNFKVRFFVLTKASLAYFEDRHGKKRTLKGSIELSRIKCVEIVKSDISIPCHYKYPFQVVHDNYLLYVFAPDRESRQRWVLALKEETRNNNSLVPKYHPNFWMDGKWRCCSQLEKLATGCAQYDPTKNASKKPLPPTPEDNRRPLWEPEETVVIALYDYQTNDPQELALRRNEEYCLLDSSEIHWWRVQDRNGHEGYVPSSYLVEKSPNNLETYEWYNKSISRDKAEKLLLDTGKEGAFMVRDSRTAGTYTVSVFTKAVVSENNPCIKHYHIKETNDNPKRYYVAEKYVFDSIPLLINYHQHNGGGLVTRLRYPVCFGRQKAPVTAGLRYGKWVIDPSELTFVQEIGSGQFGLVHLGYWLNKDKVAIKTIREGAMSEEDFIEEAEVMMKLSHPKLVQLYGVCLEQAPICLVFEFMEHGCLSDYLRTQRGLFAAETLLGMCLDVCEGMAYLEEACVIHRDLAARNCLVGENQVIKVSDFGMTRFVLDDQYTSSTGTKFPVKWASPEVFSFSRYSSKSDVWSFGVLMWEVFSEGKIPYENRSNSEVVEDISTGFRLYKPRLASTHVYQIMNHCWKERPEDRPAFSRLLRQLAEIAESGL
Description: ADP-Glo + ITK Kinase enzyme system kit, inhibitory activity against ITK. Type of assay: biochemical. To be noted: ITK enzyme 0.4 ng/ul, ATP final concentration of 25 ul, 30° C. for 1 hour, luminescence, duplicate. The protocol:
(§1) Inhibitory activities against BTK and ITK were measured for the compounds prepared in the above Examples as follows.
The inhibitory activity against ITK was evaluated using ‘ADP-Glo™+ITK Kinase enzyme system’ kit (Promega Corporation). In a white 96-well plate, 10 ul of ITK enzyme prepared so as to have a final concentration of 0.4 ng/ul was mixed with 5 ul of compounds having a final concentration of 1 uM in the case of evaluating a single concentration of compound and a concentration of 1000, 300, 100, 30, 10, 3, 1, 0.3, 0.1 and 0.03 nM in the case of IC50 evaluation, and then reacted at room temperature for 15 minutes. To the plate on which reactions were completed, 5 ul of substrate and 5 ul of ATP prepared so as to have a final concentration of […] added and then allowed to react at 30° C. for 1 hour. All wells of the plate were treated with 25 ul of ADP-Glo™ reagent and then allowed to react at 30° C. for 40 minutes. After that, all wells were treated with 50 ul of kinase detection buffer, and then allowed to react at 30° C. for 30 minutes under light shielding conditions. For the plate on which all reactions were completed, luminescence was measured and the results were calculated. Evaluation was carried out in duplicate, and negative control and positive control were calculated depending on whether or not the enzyme was added without treatment of the compound. The IC50 was calculated based on the calculated values.

The next assay has as its target T2, BTK (Homo sapiens, UniProt Q06187).
T2 construct: purchased Promega Corporation
As to the kind of experiment: ADP-Glo + BTK Kinase enzyme system kit, inhibitory activity against BTK. Conditions: BTK enzyme 1 ng/ul, ATP 10 μM, 30° C. for 1 hour, luminescence, duplicate. Type of assay: biochemical. On the procedure:
as §1
The inhibitory activities against BTK were evaluated using ‘ADP-Glo™+BTK Kinase enzyme system’ kit (Promega Corporation). In a white 96-well plate, 10 ul of BTK enzyme prepared so as to have a final concentration of 1 ng/ul was mixed with 5 μl of compounds having a final concentration of […] the case of evaluating a single concentration of compound and a concentration of 1000, 300, 100, 30, 10, 3, 1, 0.3, 0.1 and 0.03 nM in the case of IC50 evaluation, and then reacted at room temperature for 15 minutes. 5 ul of substrate and 5 ul of ATP prepared so as to have a final concentration of 10 μM were added to the plate on which reactions were completed, and then allowed to react at 30° C. for 1 hour. All wells of the plate were treated with 25 ul of ADP-Glo™ reagent and allowed to react at 30° C. for 40 minutes. After that, all wells were treated with 50 ul of kinase detection buffer, and then reacted at 30° C. for 30 minutes under light shielding conditions. For the plate on which all reactions were completed, luminescence was measured and the results were calculated. Evaluation was carried out in duplicate, and negative control and positive control were calculated depending on whether or not the enzyme was added without treatment of the compound. The IC50 was calculated based on the calculated values.
(ADP-Glo first removes unused ATP, then detects ADP through luciferase.)

T2 sequence (Q06187 whole entry): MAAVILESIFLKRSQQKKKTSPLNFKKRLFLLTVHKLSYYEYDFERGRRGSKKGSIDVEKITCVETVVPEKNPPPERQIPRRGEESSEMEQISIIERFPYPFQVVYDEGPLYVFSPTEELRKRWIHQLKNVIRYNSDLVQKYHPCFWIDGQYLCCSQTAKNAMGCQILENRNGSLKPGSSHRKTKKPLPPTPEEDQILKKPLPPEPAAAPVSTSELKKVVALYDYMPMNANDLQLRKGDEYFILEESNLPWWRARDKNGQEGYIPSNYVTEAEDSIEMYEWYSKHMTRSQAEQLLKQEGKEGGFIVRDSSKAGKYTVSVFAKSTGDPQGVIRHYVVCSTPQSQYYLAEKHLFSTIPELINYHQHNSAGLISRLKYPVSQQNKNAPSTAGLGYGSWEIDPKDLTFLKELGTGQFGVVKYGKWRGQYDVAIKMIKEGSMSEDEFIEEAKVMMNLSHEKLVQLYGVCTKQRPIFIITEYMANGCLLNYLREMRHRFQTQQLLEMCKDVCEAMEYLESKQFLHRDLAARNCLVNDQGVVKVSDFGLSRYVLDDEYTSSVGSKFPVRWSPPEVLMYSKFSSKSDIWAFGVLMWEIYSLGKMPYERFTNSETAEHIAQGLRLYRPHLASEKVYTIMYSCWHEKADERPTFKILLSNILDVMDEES

Regarding `C=CC(=O)N(CC)c1cccc(-c2cc(CN3CCOCC3)cc(Nc3ncc(C)s3)n2)c1` [Compound 66, N-ethyl-N-(3-(6-(5-methylthiazol-2-ylamino)-4-(morpholinomethyl)pyridin-2-yl)phenyl)acrylamide], the IC50 on ITK came out at 3.7 nM; on BTK it was 1.3 nM.
The matching figures for `C=CC(=O)Nc1cccc(-c2cc(CN3CCOCC3)cc(Nc3nnc(C)s3)n2)c1` [Compound 39, N-(3-(6-(5-methyl-1,3,4-thiadiazol-2-ylamino)-4-(morpholinomethyl)pyridin-2-yl)phenyl)acrylamide]: more than 1000 nM and 252 nM.
For `C=CC(=O)Nc1cccc(-c2cc(C)cc(Nc3cc(C)[nH]n3)n2)c1` [Compound 16, N-(3-(4-methyl-6-(5-methyl-1H-pyrazol-3-ylamino)pyridin-2-yl)phenyl)acrylamide] the same measures were 192 nM and 6.1 nM.
The matching figures for `C=CC(=O)Nc1cccc(-c2cc(CN3CCN(CCOC)CC3)cc(Nc3ncc(C)s3)n2)c1` [Compound 49, N-(3-(4-((4-(2-methoxyethyl)piperazin-1-yl)methyl)-6-(5-methylthiazol-2-ylamino)pyridin-2-yl)phenyl)acrylamide]: 3.1 nM and 1.3 nM.
Take `C=CC(=O)Nc1cccc(-c2cc(CN3CCOCC3)cc(Nc3cc(C4CC4)[nH]n3)n2)c1` [Compound 27, N-(3-(6-((5-cyclopropyl-1H-pyrazol-3-yl)amino)-4-(morpholinomethyl)pyridin-2-yl)phenyl)acrylamide]: the figures for the IC50 at ITK and at BTK were 36.9 nM and 68.7 nM, respectively.
For the molecule `C=CC(=O)Nc1ccc(Cl)c(-c2cc(CN3CCOCC3)cc(Nc3ncc(C)s3)n2)c1` [Compound 64], the IC50 was found to be 15.7 nM at ITK and 18.1 nM at BTK.
The matching figures for `C#CC(=O)Nc1cccc(-c2cc(Cc3ccccc3)cc(Nc3cc(C)[nH]n3)n2)c1` [Compound 6, N-(3-(4-benzyl-6-((5-methyl-1H-pyrazol-3-yl)amino)pyridin-2-yl)phenyl)propiolamide]: more than 500 nM and more than 1000 nM.
Take `C=CC(=O)Nc1cccc(-c2cc(C)cc(Nc3cc(C4CC4)[nH]n3)n2)c1` [Compound 25, N-(3-(6-((5-cyclopropyl-1H-pyrazol-3-yl)amino)-4-methylpyridin-2-yl)phenyl)acrylamide]: the concentration for half-maximal inhibition (IC50) at ITK worked out at 59.3 nM; at BTK it was 8.6 nM.
The matching figures for `C=CC(=O)Nc1cccc(-c2cc(CN3CC(C)OC(C)C3)cc(Nc3ncc(C)s3)n2)c1` (stereo not shown) [Compound 34]: 3.1 nM and 2.4 nM.
For `C=CC(=O)Nc1cccc(-c2cc(Cc3ccccc3)cc(Nc3cc(CCc4ccccc4)[nH]n3)n2)c1` [Compound 10, N-(3-(4-benzyl-6-((5-phenethyl-1H-pyrazol-3-yl)amino)pyridin-2-yl)phenyl)acrylamide] the same measures were 502 nM and 65.1 nM.
`C=CC(=O)Nc1cccc(-c2cc(C(=O)N3CCOCC3)cc(Nc3ncc(C)s3)n2)c1` [Compound 29, N-(3-(6-((5-methylthiazol-2-yl)amino)-4-(morpholine-4-carbonyl)pyridin-2-yl)phenyl)acrylamide]: the IC50 at ITK amounted to 18.6 nM; at BTK, 5.2 nM.
The matching figures for `C=CC(=O)Nc1ccc(F)c(-c2cc(CN3CCOCC3)cc(Nc3ncc(C)s3)n2)c1` [Compound 52]: 2.2 nM and 1.9 nM.
The matching figures for `C=CC(=O)Nc1cccc(-c2cc(CN3CCCC3)cc(Nc3ncc(C)s3)n2)c1` [Compound 47, N-(3-(6-((5-methylthiazol-2-yl)amino)-4-(pyrrolidin-1-ylmethyl)pyridin-2-yl)phenyl)acrylamide]: 8.2 nM and 3 nM.
The matching figures for `C=CC(=O)Nc1cccc(-c2cccc(Nc3cc(C4CCCC4)[nH]n3)n2)c1` [Compound 13, N-(3-(6-((5-cyclopentyl-1H-pyrazol-3-yl)amino)pyridin-2-yl)phenyl)acrylamide]: 266 nM and 138 nM.

The term IC50 denotes the midpoint of a concentration-inhibition curve.

The values above are taken from US11149019B2, “Phenylpyridine derivative and pharmaceutical composition comprising the same” (Daewoong Pharmaceutical Co., Ltd., priority 2017, dated 2021).
